This passage reports EC30 results from patent US10758534B2 (Vertex Pharmaceuticals Incorporated, priority 2014, dated 2020).

This test concerns the target T1, F508del (Homo sapiens, UniProt P13569, DEL508-508).
T1 construct: expressed in transfected cells
In words: Protocol 2: FRET membrane potential optical assay (VIPR), identification of correction compounds. It is filed as cell-based. The method in brief: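 Single-addition HTS format: F508del-expressing NIH3T3 cells pre-incubated 16 hrs at 37° C. ± compound, with 27° C. culture as positive control. Channel activation by forskolin 10 μM and genistein 20 μM upon switch to gluconate bath, pH 7.4; read-out is FRET-based depolarization signal.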

The mark [1] stands for this setting: F508del CFTR modulator activity, compounds of Table 1, read-out: EC30.
Setting [2] is: Table 3, compounds of Table 1 as modulators of CFTR activity, protocol not stated.

Like-named read-outs stand apart in the source and are kept apart here.

T1 sequence (P13569 with tags, fused parts or gaps DEL508-508): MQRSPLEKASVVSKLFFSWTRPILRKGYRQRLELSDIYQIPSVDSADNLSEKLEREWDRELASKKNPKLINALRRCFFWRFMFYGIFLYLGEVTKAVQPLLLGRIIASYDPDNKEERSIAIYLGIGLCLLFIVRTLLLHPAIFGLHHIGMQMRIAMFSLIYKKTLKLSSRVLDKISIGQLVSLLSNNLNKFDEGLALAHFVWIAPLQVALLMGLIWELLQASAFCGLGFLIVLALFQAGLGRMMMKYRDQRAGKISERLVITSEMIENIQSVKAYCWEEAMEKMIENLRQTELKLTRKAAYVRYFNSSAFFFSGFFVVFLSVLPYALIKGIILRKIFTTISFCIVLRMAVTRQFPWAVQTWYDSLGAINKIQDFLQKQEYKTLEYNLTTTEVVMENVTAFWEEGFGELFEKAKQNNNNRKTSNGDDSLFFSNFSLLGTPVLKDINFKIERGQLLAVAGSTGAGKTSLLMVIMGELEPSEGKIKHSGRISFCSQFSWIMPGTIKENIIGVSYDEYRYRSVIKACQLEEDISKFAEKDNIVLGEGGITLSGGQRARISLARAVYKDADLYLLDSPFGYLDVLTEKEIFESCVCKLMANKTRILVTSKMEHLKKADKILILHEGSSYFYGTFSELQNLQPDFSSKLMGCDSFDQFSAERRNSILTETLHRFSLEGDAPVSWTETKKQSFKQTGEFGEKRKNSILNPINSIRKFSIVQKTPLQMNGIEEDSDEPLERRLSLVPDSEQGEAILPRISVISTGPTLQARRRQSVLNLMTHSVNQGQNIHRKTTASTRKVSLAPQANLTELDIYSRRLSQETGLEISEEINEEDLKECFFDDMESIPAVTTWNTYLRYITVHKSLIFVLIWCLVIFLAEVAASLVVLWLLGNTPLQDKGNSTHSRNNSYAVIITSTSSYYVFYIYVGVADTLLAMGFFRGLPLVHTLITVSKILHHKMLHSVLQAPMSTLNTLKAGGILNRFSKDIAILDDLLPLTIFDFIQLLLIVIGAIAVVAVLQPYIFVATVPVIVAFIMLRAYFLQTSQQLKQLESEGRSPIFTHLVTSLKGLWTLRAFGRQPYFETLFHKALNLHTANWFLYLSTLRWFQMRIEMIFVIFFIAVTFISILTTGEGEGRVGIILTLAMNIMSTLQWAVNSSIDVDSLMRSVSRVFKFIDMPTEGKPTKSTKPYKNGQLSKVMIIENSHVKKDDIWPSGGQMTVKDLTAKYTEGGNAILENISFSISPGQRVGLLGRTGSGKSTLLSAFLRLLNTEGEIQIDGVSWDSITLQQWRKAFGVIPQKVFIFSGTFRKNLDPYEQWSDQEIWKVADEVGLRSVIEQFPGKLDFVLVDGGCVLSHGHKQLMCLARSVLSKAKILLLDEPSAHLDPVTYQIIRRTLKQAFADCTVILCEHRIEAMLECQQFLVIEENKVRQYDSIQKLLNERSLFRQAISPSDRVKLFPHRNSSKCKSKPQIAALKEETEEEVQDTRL

With `COc1cccc(OC)c1Oc1cccc(S(=O)(=O)NC(=O)c2cccnc2N2CC(C)CC2(C)C)n1` (stereo not shown) [Compound 2309, N—[[6-(2,6-dimethoxyphenoxy)-2-pyridyl]sulfonyl]-2-(2,2,4-trimethylpyrrolidin-1-yl)pyridine-3-carboxamide], the EC30 (commonly the concentration at which the effect reaches the 30% level) under setting [1] is < 3 µM.

Take `C[C@@H]1CN(c2nc(-c3ccc4ccn(C)c4c3)ccc2C(=O)NS(=O)(=O)c2cccnc2N)C(C)(C)C1` [Compound 2401, N-[(2-amino-3-pyridyl)sulfonyl]-6-(I-methylindol-6-yl)-2-[(4S)-2,2,4-trimethylpyrrolidin-1-yl]pyridine-3-carboxamide]: the EC30 under setting [1] was < 3 µM.

In the case of `C[C@@H]1CN(c2nc(-c3cccc(NCC(C)(C)C)n3)ccc2C(=O)NS(=O)(=O)c2cccnc2N)C(C)(C)C1` [Compound 2500, N-[(2-amino-3-pyridyl)sulfonyl]-6-[6-(2,2-dimethylpropylamino)-2-pyridyl]-2-[(4S)-2,2,4-trimethylpyrrolidin-1-yl]pyridine-3-carboxamide], the EC30 under setting [1] is < 3 µM.

Consider `CC(c1ccccc1)c1nc(C(C)(C)C)ccc1C(=O)NS(=O)(=O)c1cccc(N)c1` (stereo not shown) [Compound 271, N-(3-aminophenyl)sulfonyl-6-tert-butyl-2-(1-phenylethyl)pyridine-3-carboxamide], for which the EC30 result under setting [2] is “+++ (“+++” means <3 uM)”.

Regarding `COc1cc(F)ccc1-c1ccc(C(=O)NS(=O)(=O)c2ccc[nH]c2=O)c(Oc2c(C)cc(C)cc2C)n1` [Compound 608, 6-(4-fluoro-2-methoxy-phenyl)-N-[(2-oxo-1H-pyridin-3-yl)sulfonyl]-2-(2,4,6-trimethylphenoxy)pyridine-3-carboxamide], under setting [2], the EC30 result is “++ (“++” means between 3 uM and 10 uM)”.

On to `CC(C)(C)c1ccc(C(=O)NS(=O)(=O)c2cccc(N)n2)c(-c2ccc(F)cc2)n1` [Compound 417, N-[(6-amino-2-pyridyl)sulfonyl]-6-tert-butyl-2-(4-fluorophenyl)pyridine-3-carboxamide], for which the 30% effect concentration (EC30) entry under setting [2] is “++ (“++” means between 3 uM and 10 uM)”.

Consider `Cc1cc(C)c(Cn2nc(-c3cccc(C)c3F)cc2C(=O)NS(=O)(=O)c2cccc(N)c2)c(C)c1` [Compound 293, N-(3-aminophenyl)sulfonyl-5-(2-fluoro-3-methyl-phenyl)-2-[(2,4,6-trimethylphenyl)methyl]pyrazole-3-carboxamide], for which, under setting [2], the EC30 entry is reported as “+++ (“+++” means <3 uM)”.

Regarding `Cc1cc(C)c(Cn2c(C(=O)NS(=O)(=O)c3ccncc3)cc3ccc(C)cc32)c(C)c1` [Compound 38, 6-methyl-N-(4-pyridylsulfonyl)-1-[(2,4,6-trimethylphenyl)methyl]indole-2-carboxamide], under setting [2], the EC30 result is listed as “+++ (“+++” means <3 uM)”.

Regarding `CC1CN(c2ncc(-c3ccc(C(C)(C)O)cc3)cc2C(=O)NS(=O)(=O)c2cccc(N)n2)C(C)(C)C1` (stereo not shown) [Compound 2547, N-[(6-amino-2-pyridyl)sulfonyl]-5-[4-(1-hydroxy-1-methyl-ethyl)phenyl]-2-(2,2,4-trimethylpyrrolidin-1-yl)pyridine-3-carboxamide], the EC30 under setting [1] was < 3 µM.

With `Cc1c(Cn2nc(C(C)(C)C)cc2C(=O)NS(=O)(=O)c2cccc3[nH]ccc23)cccc1C(F)(F)F` [Compound 60, 5-tert-butyl-N-(1H-indol-4-ylsulfonyl)-2-[[2-methyl-3-(trifluoromethyl)phenyl]methyl]pyrazole-3-carboxamide], under setting [2], the EC30 entry was “+++ (“+++” means <3 uM)”.

`CC1CN(c2ncccc2C(=O)NS(=O)(=O)c2cccc(N(C)CC3CC3)n2)C(C)(C)C1` (stereo not shown) [Compound 2044, N—[[6-[cyclopropylmethyl(methyl)amino]-2-pyridyl]sulfonyl]-2-(2,2,4-trimethylpyrrolidin-1-yl)pyridine-3-carboxamide]: under setting [1], the EC30 is < 3 µM.

For `C[C@@H]1CN(c2nc(-c3cc(F)ccc3F)ccc2C(=O)NS(=O)(=O)c2cccnc2N)C(C)(C)C1` [Compound 2105, N-[(2-amino-3-pyridyl)sulfonyl]-6-(2,5-difluorophenyl)-2-[(4S)-2,2,4-trimethylpyrrolidin-1-yl]pyridine-3-carboxamide], the EC30 under setting [1] is < 3 µM.

Take `COC(=O)C(C)Oc1ccc(-c2ccc(C(=O)NS(=O)(=O)c3cccc(N)n3)c(N3[C@H](C)CC[C@@H]3C)n2)cn1` (stereo partly drawn) [Compound 723, methyl 2-[[5-[5-[(6-amino-2-pyridyl)sulfonylcarbamoyl]-6-[(2S,5R)-2,5-dimethylpyrrolidin-1-yl]-2-pyridyl]-2-pyridyl]oxy]propanoate]: under setting [2], the EC30 result was “++ (“++” means between 3 uM and 10 uM)”.

On to `COc1cc(F)c(F)cc1-c1ccc(C(=O)NS(=O)(=O)c2cccnc2N)c(N2C[C@@H](C)CC2(C)C)n1` [Compound 2334, N-[(2-amino-3-pyridyl)sulfonyl]-6-(4,5-difluoro-2-methoxy-phenyl)-2-[(4S)-2,2,4-trimethylpyrrolidin-1-yl]pyridine-3-carboxamide], for which, under setting [1], the EC30 is < 3 µM.

For the compound `Cc1cc(C)c(CN2Cc3cccc(C)c3CC2C(=O)NS(=O)(=O)c2cccc(N)n2)c(C)c1` (stereo not shown) [Compound 95, N-[(6-amino-2-pyridyl)sulfonyl]-5-methyl-2-[(2,4,6-trimethylphenyl)methyl]-3,4-dihydro-H-isoquinoline-3-carboxamide], under setting [2], the EC30 entry is recorded as “+++ (“+++” means <3 uM)”.

Turning to `CC(C)COc1cc(F)cc(-c2ccc(C(=O)NS(=O)(=O)c3cccc(N)n3)c(N3CC4(CCC4)CC3(C)C)n2)c1` [Compound 2589, N-[(6-amino-2-pyridyl)sulfonyl]-2-(6,6-dimethyl-7-azaspiro[3.4]octan-7-yl)-6-(3-fluoro-5-isobutoxy-phenyl)pyridine-3-carboxamide], under setting [1], the EC30 was < 3 µM.

On to `CC(C)COc1cc(F)cc(-c2ccc(C(=O)NS(=O)(=O)c3ccn[nH]3)c(N3CCCC(C)C3)n2)c1` (stereo not shown) [Compound 756, 6-(3-fluoro-5-isobutoxy-phenyl)-2-(3-methyl-1-piperidyl)-N-(1H-pyrazol-5-ylsulfonyl)pyridine-3-carboxamide], for which, under setting [2], the EC30 result was “+++ (“+++” means <3 uM)”.

For `Cc1ccn(CCCNc2cccc(S(=O)(=O)NC(=O)c3cccnc3N3CC(C)CC3(C)C)n2)n1` (stereo not shown) [Compound 2550, N—[[6-[3-(3-methylpyrazol-1-yl)propylamino]-2-pyridyl]sulfonyl]-2-(2,2,4-trimethylpyrrolidin-1-yl)pyridine-3-carboxamide], the EC30 under setting [1] was 3 to 10 µM.

Take `CCOc1ccc(Nc2cccc(S(=O)(=O)NC(=O)c3cccnc3N3CC(C)CC3(C)C)n2)cc1` (stereo not shown) [Compound 2214, N—[[6-(4-ethoxyanilino)-2-pyridyl]sulfonyl]-2-(2,2,4-trimethylpyrrolidin-1-yl)pyridine-3-carboxamide]: the EC30 under setting [1] was < 3 µM.

Consider `CC(C)COc1cc(F)cc(-c2ccc(C(=O)NS(=O)(=O)C3CCCNC3)c(N3C[C@@H](C)CC3(C)C)n2)c1` (stereo partly drawn) [Compound 2655, 6-(3-fluoro-5-isobutoxy-phenyl)-N-(3-piperidylsulfonyl)-2-[(4S)-2,2,4-trimethylpyrrolidin-1-yl]pyridine-3-carboxamide], for which the EC30 under setting [1] is < 3 µM.

In the case of `CC1CN(c2ncccc2C(=O)NS(=O)(=O)c2cccc(OCc3cccc(Cl)c3)n2)C(C)(C)C1` (stereo not shown) [Compound 2264, N—[[6-[(3-chlorophenyl)methoxy]-2-pyridyl]sulfonyl]-2-(2,2,4-trimethylpyrrolidin-1-yl)pyridine-3-carboxamide], the EC30 under setting [1] is < 3 µM.

Consider `CC(C)(C)c1ccc(C(=O)NS(=O)(=O)c2cccc(N)n2)c(C2CCCCC2)n1` [Compound 411, N-[(6-amino-2-pyridyl)sulfonyl]-6-tert-butyl-2-cyclohexyl-pyridine-3-carboxamide], for which the EC30 entry under setting [2] was “+++ (“+++” means <3 uM)”.

Take `COc1cccc(S(=O)(=O)NC(=O)c2ccc(C(C)(C)C)nc2-c2ccc(C)cc2)n1` [Compound 75, 6-tert-butyl-N-[(6-methoxy-2-pyridyl)sulfonyl]-2-(p-tolyl)pyridine-3-carboxamide]: under setting [2], the EC30 entry was “++ (“++” means between 3 uM and 10 uM)”.

`C[C@@H]1CN(c2nc(-c3ccccc3Cl)ccc2C(=O)NS(=O)(=O)c2cccnc2N)C(C)(C)C1` [Compound 2066, N-[(2-amino-3-pyridyl)sulfonyl]-6-(2-chlorophenyl)-2-[(4S)-2,2,4-trimethylpyrrolidin-1-yl]pyridine-3-carboxamide]: the EC30 under setting [1] is < 3 µM.

Regarding `C[C@@H]1CN(c2nc(OC3CCCC3)c(F)cc2C(=O)NS(=O)(=O)c2cccc(N)n2)C(C)(C)C1` [Compound 2100, N-[(6-amino-2-pyridyl)sulfonyl]-6-(cyclopentoxy)-5-fluoro-2-[(4S)-2,2,4-trimethylpyrrolidin-1-yl]pyridine-3-carboxamide], under setting [1], the EC30 was < 3 µM.

Consider `[2H]C([2H])([2H])C([2H])(COc1cc(F)cc(-c2ccc(C(=O)NS(=O)(=O)c3cccc(N)n3)c(N3C[C@@H](C)CC3(C)C)n2)c1)C([2H])([2H])[2H]` [Compound 2708, N-[(6-amino-2-pyridyl)sulfonyl]-6-[3-fluoro-5-[2,3,3,3-tetradeuterio-2-(trideuteriomethyl)propoxy]phenyl]-2-[(4S)-2,2,4-trimethylpyrrolidin-1-yl]pyridine-3-carboxamide], for which the EC30 result (F508del CFTR modulator activity, compounds of Table 1) is “+++ (“+++” means <3 uM)”.

Take `Cc1ccc(Oc2nc(-c3cc(F)cc(OCC(C)C)c3)ccc2C(=O)NS(=O)(=O)c2cccc(N)n2)c(C)c1` [Compound 590, N-[(6-amino-2-pyridyl)sulfonyl]-2-(2,4-dimethylphenoxy)-6-(3-fluoro-5-isobutoxy-phenyl)pyridine-3-carboxamide]: the EC30 entry under setting [2] was “+++ (“+++” means <3 uM)”.

`Cc1ccc(-c2nc3c(cc2C(=O)NS(=O)(=O)c2cccc(N)n2)CCCC3(C)C)cc1` [Compound 444, N-[(6-amino-2-pyridyl)sulfonyl]-8,8-dimethyl-2-(p-tolyl)-6,7-dihydro-5H-quinoline-3-carboxamide]: under setting [2], the EC30 entry was “++ (“++” means between 3 uM and 10 uM)”.
